According to PubChem BioAssay AID2060899 (Molecular Pharmacology Branch, DTP, NCI, 2025):

Test system: 565726-208-R1-J5-PDC complex spheroids, growth inhibition
Experiment: Anticancer human tumor 565726-208-R1-J5-PDC patient-derived pancreatic adenocarcinoma cell line growth inhibition [RAS]
Conditions: for IC50: curve of first compound; for viability, T/C: stronger effect = lower value
Source text: RAS pathway inhibitors in Combinations in Complex Spheroids
A high-throughput screen of multi-cell type tumor spheroids was designed to identify active combinations of RAS pathway inhibitors and targeted small molecules. Complex spheroids include a stromal component modeled by human endothelial cells (HUVEC) and fibroblasts modeled by human mesenchymal stem cells (MSCs). The concentration ranges selected for each drug and investigational agent were based upon clinically achievable concentrations if the clinical Cmax of the agent was known.
Compounds. The drugs and investigational agents: abemaciclib (NSC768073), cobimetinib (NSC768068), divarasib (GDC6063, NSC841802), docetaxel (NSC628503), GDC-1971 (RLY-1971, NSC841576), gemcitabine (NSC613327), inavolisib (NSC800729), ipatasertib (NSC767898), KB-0742 (NSC834161), MRTX-1133 (NSC836407), osimertinib (NSC779217), RMC-4630 (NSC839698), RMC-6236 (NSC851965), RMC-6291 (NSC852671), Ro-3306 (NSC812927), sapanisertib (NSC764658), SN-38 (NSC673596), staurosporine (NSC755774), SY5609 (NSC837396), and tovorafenib (DAY101, NSC766906), were obtained from the National Cancer Institute (NCI) Developmental Therapeutics Program Chemical Repository. The FDA-approved anticancer drug set is available from the NCI Developmental Therapeutics Program. […] The stock solutions were prepared in dimethyl sulfoxide (DMSO, Sigma-Aldrich, St. Louis, MO, cat. D2650) at 800-fold the tested concentration and stored at -70 degrees C prior to their use. All drugs and investigational agents were tested over a range starting from a high concentration at or near the clinical Cmax and decreasing in half-log increments. If the clinical Cmax for an agent had not been determined, the highest concentration tested was 10 microM.
Cell Culture. All cells were maintained in an incubator at 37 degrees C and 5% CO2 with 95% humidity. The PDC lines were cultured according to standard operating procedures established by the NCI PDMR. All PDCs were thawed and cultured in Matrigel-coated flasks prepared with a working solution of 1X Ham's F-12 nutrient mix, without supplementation (Invitrogen, Waltham, MA, cat. 11765054), 100 U/mL penicillin-streptomycin (Invitrogen, cat. 15140122), and 2.5% Matrigel (Corning Inc., Corning, NY, cat. 354248) for the first three passages. The 362531-283-R-J2-PDC and 782815-120-R-J1-PDC lines were cultured in 6C/Colon 1B media, which includes advanced DMEM/F-12 (Thermo Fisher Scientific, cat. 12634028), 10 mM HEPES (Thermo Fisher Scientific, cat. 15630080), 1X GlutaMAX supplement (Thermo Fisher Scientific, cat. 35050061), 0.1 mg/mL primocin (InvivoGen, San Diego, CA, cat. ant-pm-2), 10% defined fetal bovine serum, heat inactivated (HyClone Laboratories Inc., Logan, UT, cat. SH30070.03HI), 50% L-WRN conditioned media (ATCC, cat. CRL-3276), 1.25 mM N-Acetyl-L-cysteine (Sigma-Aldrich, cat. A9165), 10 mM nicotinamide (Sigma-Aldrich, cat. N0636), 1X B-27 supplement (Thermo Fisher Scientific, cat. 17504044), 1X N-2 supplement (Thermo Fisher Scientific, cat. 17502048), 50 ng/mL human EGF (Thermo Fisher Scientific, cat. PHG0311), and 10 microM Y-27632 dihydrochloride (Tocris Bioscience, cat. 1254). The K12877-001-R-J1-PDC line was cultured in 6I media, which includes all 6C/Colon 1B media plus 10 ng/mL human FGF-10 (PeproTech, cat. 100-26), 1 ng/mL human FGF-2 (PeproTech, cat. 100-18B), 1 µM prostaglandin E2 (Tocris Bioscience, cat. 2296), […] hydrocortisone (Sigma-Aldrich, cat. H4001), and […] bovine insulin (Sigma-Aldrich, cat. I6634). The K86415-001-R-J1-PDC line was cultured in 6D media, which includes all 6C/Colon 1B media components minus the L-WRN conditioned media. The 485176-168-R4-J1-PDC was cultured in PANC media, which includes all 6C/Colon 1B media plus 100 ng/mL human FGF-10 (PeproTech, cat. 100-26), 500 nM SB-431542 (Selleckchem, cat. S1067), and 10 nM gastrin (Tocris Bioscience, cat. 3006). […]
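Also: spheroids exposed to compounds for seven days before readout.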
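For viability, T/C in this document: 100% = DMSO vehicle control viability.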

IC50 (second compound 0.0316 µM): > 1000 nM | IC50 (second compound 0.1 µM): > 1000 nM | IC50 (second compound 0.316 µM): > 1000 nM | IC50 (second compound 1 µM): > 1000 nM | IC50 (second compound 3.16 µM): > 1000 nM | IC50 (second compound 10 µM): 70.9 nM
SMILES: C=CC(=O)Nc1cc(Nc2nccc(-c3cn(C)c4ccccc34)n2)c(OC)cc1N(C)CCN(C)C + C#Cc1c(F)ccc2cc(O)cc(-c3ncc4c(N5CC6CCC(C5)N6)nc(OCC56CCCN5CC(F)C6)nc4c3F)c12
viability, T/C (second compound 0.0316 µM, first compound 0.00316 µM): 120% | viability, T/C (second compound 0.0316 µM, first compound 0.01 µM): 139% | viability, T/C (second compound 0.0316 µM, first compound 0.0316 µM): 96.1% | viability, T/C (second compound 0.0316 µM, first compound 0.1 µM): 101% | viability, T/C (second compound 0.0316 µM, first compound 0.316 µM): 130% | viability, T/C (second compound 0.0316 µM, first compound 1 µM): 103% | viability, T/C (second compound 0.1 µM, first compound 0.00316 µM): 113% | viability, T/C (second compound 0.1 µM, first compound 0.01 µM): 144% | viability, T/C (second compound 0.1 µM, first compound 0.0316 µM): 102% | viability, T/C (second compound 0.1 µM, first compound 0.1 µM): 92.3% | viability, T/C (second compound 0.1 µM, first compound 0.316 µM): 121% | viability, T/C (second compound 0.1 µM, first compound 1 µM): 97.5% | viability, T/C (second compound 0.316 µM, first compound 0.00316 µM): 127% | viability, T/C (second compound 0.316 µM, first compound 0.01 µM): 130% | viability, T/C (second compound 0.316 µM, first compound 0.0316 µM): 88.9% | viability, T/C (second compound 0.316 µM, first compound 0.1 µM): 77.6% | viability, T/C (second compound 0.316 µM, first compound 0.316 µM): 113% | viability, T/C (second compound 0.316 µM, first compound 1 µM): 98.1% | viability, T/C (second compound 1 µM, first compound 0.00316 µM): 138% | viability, T/C (second compound 1 µM, first compound 0.01 µM): 110% | viability, T/C (second compound 1 µM, first compound 0.0316 µM): 76.7% | viability, T/C (second compound 1 µM, first compound 0.1 µM): 68.1% | viability, T/C (second compound 1 µM, first compound 0.316 µM): 87.1% | viability, T/C (second compound 1 µM, first compound 1 µM): 84.7% | viability, T/C (second compound 3.16 µM, first compound 0.00316 µM): 120% | viability, T/C (second compound 3.16 µM, first compound 0.01 µM): 85.2% | viability, T/C (second compound 3.16 µM, first compound 0.0316 µM): 65% | viability, T/C (second compound 3.16 µM, first compound 0.1 µM): 51.2% | viability, T/C (second compound 3.16 µM, first compound 0.316 µM): 72% | viability, T/C (second compound 3.16 µM, first compound 1 µM): 74% | viability, T/C (second compound 10 µM, first compound 0.00316 µM): 89.4% | viability, T/C (second compound 10 µM, first compound 0.01 µM): 86.5% | viability, T/C (second compound 10 µM, first compound 0.0316 µM): 64.1% | viability, T/C (second compound 10 µM, first compound 0.1 µM): 41.2% | viability, T/C (second compound 10 µM, first compound 0.316 µM): 50.7% | viability, T/C (second compound 10 µM, first compound 1 µM): 40.1%
